Data from US10526323B2, “Indazole and azaindazole substituted compounds as mGluR4 allosteric potentiators, compositions, and methods of treating neurological dysfunction” (Vanderbilt University, priority 2015, dated 2020).

target: mGluR4 (UniProt Q14833); experiment: mGluR4 potentiation assay: increase in response to an EC20 concentration of agonist (species not given); assay type: cell-based; conditions: EC50 for potentiation of mGluR4; table does not state human or rat
Experimental: The disclosed compounds and compositions can be evaluated for their ability to act as a potentiator of metabotropic glutamate receptor activity, in particular mGluR4 activity, by any suitable known methodology known in the art. For example, Chinese Hamster Ovary (CHO) cells transfected with human mGluR4 or […] co-transfected with rat mGluR4 and the G-protein regulated Inwardly Rectifying Potassium channel (GIRK) were plated in clear bottom assay plates for assay in a Hamamatsu FDSS Fluorometric Plate Reader. The cells were loaded with either a Ca2+-sensitive fluorescent dye or the thallium responsive dye and the plates were washed and placed into a suitable kinetic plate reader. For human mGluR4 assays, a fluorescence baseline was established for 3-5 seconds, the disclosed compounds were then added to the cells, and the response in cells was measured. Approximately two and a half minutes later, a concentration of mGluR4 orthosteric agonist (e.g. glutamate or L-AP4) eliciting approximately 20% (EC20) of the maximal agonist response was added to the cells, and the response was measured. Two minutes later, a concentration of mGluR4 agonist (e.g. glutamate or L-AP4) eliciting 80% (EC80) of the maximal agonist response was added to the cells, and the response was measured. For rat mGluR4/GIRK experiments, a baseline was established for approximately five seconds, disclosed compounds were added, and either an EC20 or EC80 concentration of agonist was added approximately two and one half minutes later. Potentiation of the agonist response of mGluR4 by the disclosed compounds was observed as an increase in response to the EC20 concentration of agonist in the presence of compound compared to the response to agonist in the absence of compound. Similarly, antagonism of the agonist response of mGluR4 by the disclosed compounds was observed as a decrease in response to the EC80 concentration of agonist in the presence of compound compared to the response to agonist in the absence of compound.
The above described assay operated in two modes. In the first mode, a range of concentrations of the disclosed compounds are added to cells, followed by a single fixed concentration of agonist. If the compound acts as a potentiator, an EC50 value for potentiation and a maximum extent of potentiation by the compound at this concentration of agonist is determined by non-linear curve fitting. If the compound acts as a noncompetitive antagonist, an IC50 value is determined by non-linear curve fitting. In the second mode, several fixed concentrations of the disclosed compounds are added to various wells on a plate, followed by a range in concentrations of agonist for each concentration of disclosed compound. The EC50 values for the agonist at each concentration of compound are determined by non-linear curve fitting. A decrease in the EC50 value of the agonist with increasing concentrations of the sample compound (a leftward shift of the agonist concentration-response curve) is an indication of the degree of mGluR4 potentiation at a given concentration of the sample compound. A decrease in the maximal response of the agonist with increasing concentrations of the sample compounds, with or without a rightward shift in agonist potency, is an indication of the degree of noncompetitive antagonism at mGluR4. The second mode also indicates whether the sample compounds also affect the maximum response to mGluR4 to agonists.
These compounds are positive allosteric modulators (potentiators) of human and rat mGluR4 and were selective for mGluR4 compared to the other seven subtypes of metabotropic glutamate receptors.

EC50 [nM] | Structure (SMILES)
47 | Cc1nn(CC2CCC2)c2ccc(Nc3n[nH]c4cccnc34)cc12 [Example 72, N-(1-(cyclobutylmethyl)-3-methyl-1H-indazol-5-yl)-1H-pyrazolo[4,3-b]pyridin-3-amine]
186 | Cc1nn(CC2CCC2)c2ccc(Nc3n[nH]c4nccnc34)cc12 [Example 73, N-(1-(cyclobutylmethyl)-3-methyl-1H-indazol-5-yl)-1H-pyrazolo[3,4-b]pyrazin-3-amine]
51 | Cc1cc(Cn2nc(C)c3cc(Nc4n[nH]c5cccnc45)ccc32)no1 [Example 76, N-(3-methyl-1-((5-methylisoxazol-3-yl)methyl)-1H-indazol-5-yl)-1H-pyrazolo[4,3-b]pyridin-3-amine]
129 | Cc1cc(Cn2nc(C)c3cc(Nc4n[nH]c5ccccc45)ccc32)no1 [Example 78, N-(3-methyl-1-((5-methylisoxazol-3-yl)methyl)-1H-indazol-5-yl)-1H-indazol-3-amine]
167 | c1cnc2c(Nc3ccc4c(cnn4CC4CCC4)c3)n[nH]c2c1 [Example 80, N-(1-(cyclobutylmethyl)-1H-indazol-5-yl)-1H-pyrazolo[4,3-b]pyridin-3-amine]
> 10000 | c1cc2c(cnn2CC2CCC2)cc1Nc1n[nH]c2c1CCCC2 [Example 81, 1-(cyclobutylmethyl)-N-(4,5,6,7-tetrahydro-1H-indazol-3-yl)-1H-indazol-5-amine]
818 | Cn1ncc2cc(Nc3n[nH]c4nccnc34)ccc21 [Example 84]
51.4 | c1ccc2c(Nc3ccc4c(cnn4CC4CCC4)c3)n[nH]c2c1 [Example 86, N-(1-(cyclobutylmethyl)-1H-indazol-5-yl)-1H-indazol-3-amine]
749 | c1cnc2c(Nc3ccc4nn(CC5CCC5)cc4c3)n[nH]c2n1 [Example 87, N-(2-(cyclobutylmethyl)-2H-indazol-5-yl)-1H-pyrazolo[3,4-b]pyrazin-3-amine]
> 10000 | c1cnc2c(Nc3ccc4nn(CC5CCC5)cc4c3)n[nH]c2c1 [Example 89, N-(2-(cyclobutylmethyl)-2H-indazol-5-yl)-1H-pyrazolo[4,3-b]pyridin-3-amine]
19 | CCCCCn1nc(C)c2cc(Nc3n[nH]c4cccnc34)ccc21 [Example 91]
35 | CCCCCn1nc(C)c2cc(Nc3n[nH]c4nccnc34)ccc21 [Example 95, N-(3-methyl-1-pentyl-1H-indazol-5-yl)-1H-pyrazolo[3,4-b]pyrazin-3-amine]
863 | [2H]C([2H])([2H])n1ncc2cc(Nc3n[nH]c4cccnc34)ccc21 [Example 96, N-(1-(methyl-d3)-1H-indazol-5-yl)-1H-pyrazolo[4,3-b]pyridin-3-amine]
258 | Cc1nn(CC2CC(C3CC3)=NO2)c2ccc(Nc3n[nH]c4cccnc34)cc12 (stereo not shown) [Example 100, N-(1-((3-cyclopropyl-4,5-dihydroisoxazol-5-yl)methyl)-3-methyl-1H-indazol-5-yl)-1H-pyrazolo[4,3-b]pyridin-3-amine]
> 10000 | Cc1c2cc(Nc3n[nH]c4cccnc34)ccc2nn1C [Example 101, N-(2,3-dimethyl-2H-indazol-5-yl)-1H-pyrazolo[4,3-b]pyridin-3-amine]
83 | Cc1cc(Cn2ncc3cc(Nc4n[nH]c5nccnc45)ccc32)no1 [Example 104, N-(1-((5-methylisoxazol-3-yl)methyl)-1H-indazol-5-yl)-1H-pyrazolo[3,4-b]pyrazin-3-amine]
> 10000 | CCC(C)n1nc2ccc(Nc3n[nH]c4cccnc34)cc2c1C (stereo not shown) [Example 105, N-(2-(sec-butyl)-3-methyl-2H-indazol-5-yl)-1H-pyrazolo[4,3-b]pyridin-3-amine]

More lines, now with the values behind:

Structure (SMILES) | EC50 [nM]
Cc1cc(Cn2nc(C)c3cc(Nc4n[nH]c5nccnc45)ccc32)no1 [Example 69, N-(3-methyl-1-((5-methylisoxazol-3-yl)methyl)-1H-indazol-5-yl)-1H-pyrazolo[3,4-b]pyrazin-3-amine] | 145
Cc1cc(Cn2nc3ccc(Nc4n[nH]c5cccnc45)cc3c2C)no1 [Example 70, N-(3-methyl-2-((5-methylisoxazol-3-yl)methyl)-2H-indazol-5-yl)-1H-pyrazolo[4,3-b]pyridin-3-amine] | 870
Cc1nn(CC2CCC2)c2ccc(Nc3n[nH]c4ccccc34)cc12 [Example 71, N-(1-(cyclobutylmethyl)-3-methyl-1H-indazol-5-yl)-1H-indazol-3-amine] | 342
Cc1nn(C2CCCC2)c2ccc(Nc3n[nH]c4cccnc34)cc12 [Example 74, N-(1-cyclopentyl-3-methyl-1H-indazol-5-yl)-1H-pyrazolo[4,3-b]pyridin-3-amine] | 265
Cc1nn(CC2CCC2)c2ccc(Nc3n[nH]c4ncccc34)cc12 [Example 75, N-(1-(cyclobutylmethyl)-3-methyl-1H-indazol-5-yl)-1H-pyrazolo[3,4-b]pyridin-3-amine] | 187
Cc1cc(Cn2nc(C)c3cc(Nc4n[nH]c5ncccc45)ccc32)no1 [Example 77, N-(3-methyl-1-((5-methylisoxazol-3-yl)methyl)-1H-indazol-5-yl)-1H-pyrazolo[3,4-b]pyridin-3-amine] | 157
Cc1n[nH]c2ccc(Nc3n[nH]c4cccnc34)cc12 [Example 79] | 813
Cc1cc(Cn2ncc3cc(Nc4n[nH]c5cccnc45)cc(Cl)c32)no1 [Example 82, N-(7-chloro-1-((5-methylisoxazol-3-yl)methyl)-1H-indazol-5-yl)-1H-pyrazolo[4,3-b]pyridin-3-amine] | 136
Cn1cc2cc(Nc3n[nH]c4nccnc34)ccc2n1 [Example 83] | 202
c1cnc2c(Nc3ccc4c(cnn4CC4CCC4)c3)n[nH]c2n1 [Example 85, N-(1-(cyclobutylmethyl)-1H-indazol-5-yl)-1H-pyrazolo[3,4-b]pyrazin-3-amine] | 57
c1cnc2c(Nc3ccc4[nH]ncc4c3)n[nH]c2c1 [Example 88, N-(1H-indazol-5-yl)-1H-pyrazolo[4,3-b]pyridin-3-amine] | 72
Cc1nn(C2CCNCC2)c2ccc(Nc3n[nH]c4cccnc34)cc12 [Example 90, N-(3-methyl-1-(piperidin-4-yl)-1H-indazol-5-yl)-1H-pyrazolo[4,3-b]pyridin-3-amine] | > 10000
Cc1nn(Cc2noc3ccccc23)c2ccc(Nc3n[nH]c4cccnc34)cc12 [Example 92, N-(1-(benzo[d]isoxazol-3-ylmethyl)-3-methyl-1H-indazol-5-yl)-1H-pyrazolo[4,3-b]pyridin-3-amine] | 81
Cc1ccc(-n2nc(C)c3cc(Nc4n[nH]c5cccnc45)ccc32)cc1 [Example 93, N-(3-methyl-1-(p-tolyl)-1H-indazol-5-yl)-1H-pyrazolo[4,3-b]pyridin-3-amine] | > 10000
Cc1nn(CCO)c2ccc(Nc3n[nH]c4cccnc34)cc12 [Example 94, 2-(5-((1H-pyrazolo[4,3-b]pyridin-3-yl)amino)-3-methyl-1H-indazol-1-yl)ethan-1-ol] | > 10000
Cc1nn(C(C)(C)C)c2ccc(Nc3n[nH]c4cccnc34)cc12 [Example 97, N-(1-(tert-butyl)-3-methyl-1H-indazol-5-yl)-1H-pyrazolo[4,3-b]pyridin-3-amine] | 575
Cc1c2cc(Nc3n[nH]c4cccnc34)ccc2nn1C(C)(C)C [Example 98, N-(2-(tert-butyl)-3-methyl-2H-indazol-5-yl)-1H-pyrazolo[4,3-b]pyridin-3-amine] | > 10000
Cc1nn(C)c2ccc(Nc3n[nH]c4nccnc34)cc12 [Example 99, N-(1,3-dimethyl-1H-indazol-5-yl)-1H-pyrazolo[3,4-b]pyrazin-3-amine] | 757
CCC(C)n1nc(C)c2cc(Nc3n[nH]c4cccnc34)ccc21 (stereo not shown) [Example 102, N-(1-(sec-butyl)-3-methyl-1H-indazol-5-yl)-1H-pyrazolo[4,3-b]pyridin-3-amine] | 367
Cc1cc(Cn2ncc3cc(Nc4n[nH]c5cccnc45)ccc32)no1 [Example 103, N-(1-((5-methylisoxazol-3-yl)methyl)-1H-indazol-5-yl)-1H-pyrazolo[4,3-b]pyridin-3-amine] | 125
